Measured values: the NIST ThermoML archive (doi:10.1021/acs.jced.5b00838)

Test: excess molar enthalpy (molar enthalpy of mixing); xn = mol fraction of the nth substance listed
Settings: 100 kPa, Liquid, isothermal titration calorimetry

CCCCCOCCC [1-propoxypentane] + CC#N
Settings	excess molar enthalpy [kcal/mol]
298.15 K, x2 = 0.031	0.041
298.15 K, x2 = 0.0602	0.0775
298.15 K, x2 = 0.0876	0.108
298.15 K, x2 = 0.1135	0.133
298.15 K, x2 = 0.1379	0.155
298.15 K, x2 = 0.183	0.191
298.15 K, x2 = 0.2236	0.219
298.15 K, x2 = 0.2604	0.24
298.15 K, x2 = 0.2938	0.256
298.15 K, x2 = 0.3243	0.27
298.15 K, x2 = 0.3781	0.288
298.15 K, x2 = 0.424	0.298
298.15 K, x2 = 0.4635	0.304
298.15 K, x2 = 0.5061	0.307
298.15 K, x2 = 0.5424	0.306
298.15 K, x2 = 0.5738	0.304
298.15 K, x2 = 0.6011	0.301
298.15 K, x2 = 0.6296	0.296
298.15 K, x2 = 0.6542	0.29
298.15 K, x2 = 0.6758	0.284
298.15 K, x2 = 0.6979	0.276
298.15 K, x2 = 0.7171	0.269
298.15 K, x2 = 0.734	0.262
298.15 K, x2 = 0.7491	0.255
298.15 K, x2 = 0.7625	0.248
298.15 K, x2 = 0.7644	0.242
298.15 K, x2 = 0.7829	0.232
298.15 K, x2 = 0.8022	0.221
298.15 K, x2 = 0.8226	0.207
298.15 K, x2 = 0.844	0.191
298.15 K, x2 = 0.8666	0.172
298.15 K, x2 = 0.8807	0.159
298.15 K, x2 = 0.8953	0.145
298.15 K, x2 = 0.9104	0.128
298.15 K, x2 = 0.926	0.11
298.15 K, x2 = 0.9421	0.089
298.15 K, x2 = 0.9531	0.0741
298.15 K, x2 = 0.9644	0.0577
298.15 K, x2 = 0.976	0.0399
298.15 K, x2 = 0.9879	0.0207
308.15 K, x2 = 0.0305	0.0427
308.15 K, x2 = 0.0592	0.0799
308.15 K, x2 = 0.0863	0.111
308.15 K, x2 = 0.1118	0.137
308.15 K, x2 = 0.136	0.16
308.15 K, x2 = 0.1806	0.197
308.15 K, x2 = 0.2208	0.225
308.15 K, x2 = 0.2572	0.247
308.15 K, x2 = 0.2904	0.265
308.15 K, x2 = 0.3207	0.278
308.15 K, x2 = 0.3742	0.297
308.15 K, x2 = 0.4199	0.309
308.15 K, x2 = 0.4594	0.315
308.15 K, x2 = 0.502	0.319
308.15 K, x2 = 0.5383	0.319
308.15 K, x2 = 0.5697	0.317
308.15 K, x2 = 0.6022	0.312
308.15 K, x2 = 0.6301	0.307
308.15 K, x2 = 0.6543	0.301
308.15 K, x2 = 0.6756	0.295
308.15 K, x2 = 0.6944	0.288
308.15 K, x2 = 0.7137	0.281
308.15 K, x2 = 0.7173	0.276
308.15 K, x2 = 0.7308	0.273
308.15 K, x2 = 0.7382	0.267
308.15 K, x2 = 0.7459	0.266
308.15 K, x2 = 0.7595	0.259
308.15 K, x2 = 0.7603	0.256
308.15 K, x2 = 0.7838	0.242
308.15 K, x2 = 0.8089	0.226
308.15 K, x2 = 0.8355	0.206
308.15 K, x2 = 0.8524	0.192
308.15 K, x2 = 0.8699	0.176
308.15 K, x2 = 0.8882	0.157
308.15 K, x2 = 0.9072	0.136
308.15 K, x2 = 0.9271	0.112
308.15 K, x2 = 0.9409	0.0938
308.15 K, x2 = 0.955	0.0737
308.15 K, x2 = 0.9695	0.0515
308.15 K, x2 = 0.9845	0.027
